Results published in patent US20250214980A1, “MULTICYCLIC COMPOUNDS” (SLAP Pharmaceuticals LLC, priority 2022, published 2025).
pIC50: −log10 of the molar value.

Assays:
PARP1 [1] = target: T1, PARP1 (Homo sapiens (Human), UniProt P09874); assay: cell-based assay (Proliferation Assay (PARP Inhibitors) in DLD-1 wt and DLD-1 BRCA2), Table 1
Protocol: Proliferation Assay (PARP Inhibitors) in DLD-1 wt and DLD-1 BRCA2
DLD-1-wt and DLD-1 mutant cells are cultured in RPMI 1640+10% FBS+1% PS. The cells are harvested into culture media for 2-3 days. The cells are diluted into culture media (density 2˜3×10^6) and 40 μL of cell suspension (50 cells/well for DLD-1 wt and 50 cells/well for DLD-1 BRCA (-/-). The plates are covered and spun at rt at 1000 rpm, for 1 minute and then transferred. The plates are placed into 37° C. 5% CO2 incubator overnight. Test compounds are dissolved at 10 mM DMSO stock solution and then 40 μL of stock solution is transferred to a 384 PP-plate. A 10-point dilution is carried out by transferring 10 uL compound into 30 μL DMSO by using TECAN (EVO200) liquid handler. The plates are spun at rt at 1000 rpm for 1 minute and then shaken on a plate shaker for 2 minutes. Forty nL of diluted compound is transferred into the cell plate by using a liquid handler. After 7 days of incubation, a CTG detection assay is performed. The CTG detection assay is carried out by removing the plates from the incubators and then equilibrated at rt for 15 minutes. The CellTiter Glo reagents are thawed and equilibrated at rt. CellTiter-Glo reagent ([…]) is added into each well, and the plates are placed at rt for 30 minutes followed by reading on EnVision. The inhibition activity is calculated using the formula: % Inhibition=100×(LumHC−LumSample)/(LumHC−LumLC).
In Table 1, ‘A’ indicates an IC50 of <0.1 μM, ‘B’ indicates an IC50 of ≥0.1 μM and <1.0 μM, and ‘C’ indicates an IC50 of ≥[…]. As shown by the results in Table 1, compounds of Formula (I), including pharmaceutically acceptable salts thereof, are effective PARP1 inhibitors.
Target sequence in this assay (P09874 whole entry): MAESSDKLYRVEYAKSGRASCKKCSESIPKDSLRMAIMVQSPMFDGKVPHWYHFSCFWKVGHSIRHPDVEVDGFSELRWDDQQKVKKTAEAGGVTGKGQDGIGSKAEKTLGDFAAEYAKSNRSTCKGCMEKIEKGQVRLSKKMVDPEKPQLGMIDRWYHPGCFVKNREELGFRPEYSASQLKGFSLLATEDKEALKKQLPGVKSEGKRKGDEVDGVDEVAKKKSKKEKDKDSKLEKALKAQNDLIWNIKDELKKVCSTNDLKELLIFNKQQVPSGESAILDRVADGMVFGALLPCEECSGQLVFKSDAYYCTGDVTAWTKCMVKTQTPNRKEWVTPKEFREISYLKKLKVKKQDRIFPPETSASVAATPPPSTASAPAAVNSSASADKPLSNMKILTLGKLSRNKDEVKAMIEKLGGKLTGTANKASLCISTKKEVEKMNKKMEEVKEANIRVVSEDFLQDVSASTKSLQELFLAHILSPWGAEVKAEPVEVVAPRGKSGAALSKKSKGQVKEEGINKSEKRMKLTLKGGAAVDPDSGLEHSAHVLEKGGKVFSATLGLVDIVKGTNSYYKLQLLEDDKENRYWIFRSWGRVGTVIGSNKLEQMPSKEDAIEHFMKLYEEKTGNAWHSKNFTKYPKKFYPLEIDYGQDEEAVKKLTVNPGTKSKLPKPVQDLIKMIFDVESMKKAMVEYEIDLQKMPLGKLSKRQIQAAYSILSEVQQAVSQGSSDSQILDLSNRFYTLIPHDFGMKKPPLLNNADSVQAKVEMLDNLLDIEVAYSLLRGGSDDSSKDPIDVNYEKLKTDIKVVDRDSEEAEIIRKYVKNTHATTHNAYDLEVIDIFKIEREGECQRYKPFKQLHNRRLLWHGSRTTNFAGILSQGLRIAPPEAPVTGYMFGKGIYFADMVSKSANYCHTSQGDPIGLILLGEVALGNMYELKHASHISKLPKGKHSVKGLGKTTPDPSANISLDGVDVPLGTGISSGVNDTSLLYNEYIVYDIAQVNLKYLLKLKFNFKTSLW

PARP1 [2] = target: T1, PARP1; assay: biochemical assay (FP Binding Assay PARP1), Table 2
Protocol: FP Binding Assay (PARP1, PARP2)
The PARP1 and PARP 2 protein and the PARPi-FL were purchased from BPS Bioscience. The assay buffer was 50 mM Tris pH 8.0, 0.001% Triton X-100, 10 mM MgCl2, 150 mM NaCl. The compounds were diluted into top point concentration in 384PP-plate and transferred serially into an Optiplate-384F plate. Compound (20 nL) or DMSO was added to assay plate and then 10 μL of 40 nM PARP1 or PARP2 (diluted using assay buffer) was added. The assay plate was centrifuged at 1000 rpm for 1 min and then incubated for 30 min at rt. 6 nM PARPi-FL (diluted using assay buffer) (10 uL) was added to the plate (final concentration of PARP1 and PARP2 was 20 nM, and PARPi-FL was 3 nM). After centrifuging at 1000 rpm for 1 min, the assay plate was incubated at rt 4 h. The plates were read using Envision with Excitation filter. The data analysis was done by calculating the inhibition rate using mP value using the following equation. Inhibition (%)=(1−mpC−mpL)/mpH−mpL×100%.
As shown by the results in Table 2, compounds of Formula (I), including pharmaceutically acceptable salts thereof, are effective PARP1 inhibitors.
Target sequence in this assay (P09874 whole entry, species assumed): as the sequence (P09874 whole entry) above

| Structure (SMILES) | pIC50 (PARP1 [1]) | pIC50 (PARP1 [2]) |
| --- | --- | --- |
| CC[C@@H]1Oc2ccc(CN3CCN(c4ccc(C(=O)NC)nc4C)CC3)cc2NC1=O (single isomer, unassigned) [Compound 2ab] | > 7.00 | – |
| CC[C@H]1Oc2ccc(CN3CCN(c4ccc(C(=O)NC)nc4)CC3)cc2NC1=O [Compound 1aa] | > 7.00 | – |
| CC[C@H]1Oc2ccc(CN3CCN(c4ccc(C(=O)NC)nc4C)CC3)cc2NC1=O [Compound 2aa] | > 7.00 | – |
| CC[C@@H]1Oc2ccc(CN3CCN(c4ccc(C(=O)NC)nc4)CC3)cc2NC1=O (single isomer, unassigned) [Compound 1ab] | > 7.00 | – |
| CNC(=O)c1ccc(N2CCN(Cc3ccc4c(c3)NC(=O)C3(CC3)O4)CC2)c(F)n1 [Compound A7] | > 7.00 | > 8.30 |
| CCC1Oc2ccc(CN3CCN(c4ccc(C(=O)NC)nc4)CC3)cc2NC1=O (centres unmarked) [Compound A1] | > 7.00 | – |
| CNC(=O)c1ccc(N2CCN(Cc3ccc4c(c3F)NC(=O)C3(CC3)O4)CC2)c(F)n1 [Compound A9] | > 7.00 | – |
